Measurements from ChEMBL document CHEMBL1201862, “PubChem BioAssay data set” (2004).
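Tested at 5 concentrations; 48 h exposure; 96-well plates; endpoints linearly interpolated, else capped at highest concentration. Abbreviation: GI50, concentration required for 50% inhibition of growth.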 Calls of active or inactive are those of the source. Cut-off read from the data, not from the text of the source: active = GI50 up to about 1.1 µM and inactive = higher.

Experiments:
Assay in all cases: NCI anticancer screen, dose series, 48 h
Malme-3M = test system: Malme-3M
MDA-N = test system: MDA-N
CCRF-CEM = test system: CCRF-CEM
M14 = test system: M14
SK-MEL-2 = test system: SK-MEL-2
MDA-MB-435 = test system: MDA-MB-435
NCI-H23 = test system: NCI-H23
NCI-H226 = test system: NCI-H226
Hs-578T = test system: Hs-578T
EKVX = test system: EKVX
OVCAR-8 = test system: OVCAR-8
A549 = test system: A549
TK-10 = test system: TK-10
T47D = test system: T47D
UACC-257 = test system: UACC-257
HOP-62 = test system: HOP-62
IGROV-1 = test system: IGROV-1
SF-268 = test system: SF-268
SK-MEL-28 = test system: SK-MEL-28
SK-MEL-5 = test system: SK-MEL-5
SF-539 = test system: SF-539
SF-295 = test system: SF-295
SR = test system: SR
HT-29 = test system: HT-29
HCT-15 = test system: HCT-15
SW-620 = test system: SW-620
NCI-H460 = test system: NCI-H460
LOX IMVI = test system: LOX IMVI
RPMI-8226 = test system: RPMI-8226
786-0 = test system: 786-0
U-251 = test system: U-251
UO-31 = test system: UO-31
OVCAR-5 = test system: OVCAR-5
OVCAR-3 = test system: OVCAR-3
K562 = test system: K562
NCI-H522 = test system: NCI-H522
MOLT-4 = test system: MOLT-4
PC-3 = test system: PC-3
ACHN = test system: ACHN
BT-549 = test system: BT-549
SN12C = test system: SN12C
KM12 = test system: KM12
SK-OV-3 = test system: SK-OV-3
SNB-75 = test system: SNB-75
UACC-62 = test system: UACC-62
A498 = test system: A498
SNB-19 = test system: SNB-19
MDA-MB-231 = test system: MDA-MB-231
HCC 2998 = test system: HCC 2998
HL-60 = test system: HL-60
DU-145 = test system: DU-145
MCF7 = test system: MCF7
NCI/ADR-RES = test system: NCI/ADR-RES
CAKI-1 = test system: CAKI-1
HCT-116 = test system: HCT-116
COLO 205 = test system: COLO 205
OVCAR-4 = test system: OVCAR-4

Measured: GI50

CC1Oc2c(c(=O)oc3ccccc23)[C@@]1(C)CC1C[C@H](C)C(=O)O1 (stereo partly drawn)
18.3 µM: HCT-15
inactive: Malme-3M 19.5 µM | MDA-N 19.9 µM | CCRF-CEM 5.96 µM | M14 20.3 µM | SK-MEL-2 25.9 µM | MDA-MB-435 21.9 µM | NCI-H23 19.1 µM | NCI-H226 > 100 µM | Hs-578T 30.6 µM | EKVX > 100 µM | OVCAR-8 30.5 µM | A549 87.7 µM | TK-10 > 100 µM | T47D 37.4 µM | UACC-257 35.2 µM | HOP-62 47.6 µM | IGROV-1 33.8 µM | SF-268 18.3 µM | SK-MEL-28 18.7 µM | SK-MEL-5 38.8 µM | SF-539 25.2 µM | SF-295 63 µM | SR > 10 µM | HT-29 27.1 µM | SW-620 26.9 µM | NCI-H460 > 10 µM | LOX IMVI 27.4 µM | RPMI-8226 33.3 µM | 786-0 16.4 µM | U-251 35.1 µM | UO-31 27.6 µM | OVCAR-5 83.8 µM | OVCAR-3 20.9 µM | K562 16.8 µM | NCI-H522 19.5 µM | MOLT-4 10.9 µM | PC-3 40.8 µM | ACHN 24.4 µM | BT-549 30.8 µM | SN12C > 10 µM | KM12 44.6 µM | SK-OV-3 50.5 µM | SNB-75 24.7 µM | UACC-62 19.1 µM | A498 > 100 µM | SNB-19 62.4 µM | MDA-MB-231 31.1 µM | HCC 2998 23.2 µM | HL-60 27.5 µM | DU-145 23.3 µM | MCF7 34.4 µM | NCI/ADR-RES 32.7 µM | CAKI-1 19.1 µM | HCT-116 15.1 µM | COLO 205 32.1 µM

COC(=O)C1Cc2cc3c(cc2C1=O)CCCC3 (stereo not drawn)
inactive: Malme-3M > 100 µM | MDA-N > 100 µM | CCRF-CEM 37.2 µM | M14 > 100 µM | SK-MEL-2 > 100 µM | MDA-MB-435 > 100 µM | NCI-H23 43.2 µM | NCI-H226 23.8 µM | Hs-578T 48.4 µM | EKVX 46.8 µM | OVCAR-8 46.6 µM | A549 > 100 µM | TK-10 28 µM | T47D 37.6 µM | UACC-257 > 100 µM | HOP-62 48.6 µM | IGROV-1 67.5 µM | SF-268 62.1 µM | SK-MEL-28 > 100 µM | SK-MEL-5 48 µM | SF-539 > 100 µM | SF-295 62.1 µM | SR 30.3 µM | HT-29 61.8 µM | SW-620 47 µM | NCI-H460 > 100 µM | LOX IMVI 67 µM | RPMI-8226 45.9 µM | 786-0 66.5 µM | U-251 43.5 µM | UO-31 51.9 µM | OVCAR-5 72.9 µM | OVCAR-3 > 100 µM | K562 33.6 µM | NCI-H522 80.5 µM | MOLT-4 41.2 µM | PC-3 30.8 µM | ACHN 94.6 µM | BT-549 22.3 µM | SN12C 77.4 µM | KM12 34.3 µM | SK-OV-3 27.1 µM | SNB-75 70.3 µM | UACC-62 > 100 µM | A498 53.5 µM | SNB-19 56.5 µM | MDA-MB-231 63.7 µM | HCC 2998 > 100 µM | HL-60 29.2 µM | DU-145 45.8 µM | MCF7 42 µM | NCI/ADR-RES 48.9 µM | CAKI-1 54.1 µM | OVCAR-4 64.9 µM | HCT-116 42.3 µM | COLO 205 > 100 µM
43.2 µM: HCT-15
